Source: publication PMC8910920 (International Journal of Molecular Sciences, 2022)

Key:
rTRPM8 = target: T1, rTRPM8 (Rattus norvegicus, UniProt Q8R455); assay: Ca2+ microfluorography assay, HEK293 cells expressing rTRPM8, menthol activation; type: cell-based
T1 construct: expressed in transfected cells
Procedure: This represents a similar activity as β–lactam 2 and a somewhat higher potency than the model TRPM8 antagonists AMTB.
To measure the effect of the compounds against TRPM8 activity we used microfluorometry-based calcium flux assays with Fluo-4 NW Ca^2+ dye and fluorescence as described in [30]. Briefly, human embryonic kidney cell line (HEK293) cells stably transfected with rTRPM8 or hTRPM8 were seeded in 96-well plates at a cell density of 30,000 cells. After 2 days the medium was replaced with 100 μL of the dye, Fluo-4 NW, loading solution supplemented with probenecid 2.5 mM and incubated 1 h at 37 °C. The TRPM8 activity was measured using POLASTAR plate reader (BMG Labtech) setting the excitation wavelength at 485 nm and the emission wavelength at 520 nm. The baseline fluorescence was recorded for 3 cycles before the addition of vehicle compound at different concentrations and the antagonist, 10 μM AMTB. Fluorescence intensity was recorded during 7 more cycles and 100 μM menthol was added. Fluorescence intensity was recorded during 10 more cycles.
Data analysis: The Z-factor was calculated in each assay using the following equation: […]. In all the experiments, the Z-factor was ≥0.5. The effect of the compounds against TRPM8 activity was determined by normalizing their effect on the maximum fluorescence observed after application of 100 μM menthol. Decrease in menthol signal was expressed as percentage of inhibition (%). All data are expressed as the mean ± standard deviation (SD). Data are expressed as the concentration exerting a half-maximal inhibition of agonist-induced [Ca^2+]i elevation (IC50), which was calculated again using GraphPad Prism® software. All determinations were performed in triplicate (n = 3) in 3 independent experiments (N = 3).

[1] = test system: CCI rats, mechanical hypersensitivity; assay: CCI model of neuropathic pain, mechanical sensitivity (automatized von Frey test); type: in vivo, rat
Procedure: The CCI model of neuropathic pain allowed the evaluation of the effect RGM8-51 on cold, heat and mechanical sensitivity, as assayed by the acetone test, the Hargreaves test, and the automatized von Frey test, respectively. RGM8-51 was applied either locally (i.pl.; 10 µg) in the affected paw or systemically (intraperitoneally, i.p., 10 and 30 mg/kg) and the effect evaluated before (Baseline) and after CCI surgery. The nocifensive response after administration of RGM8-51 was compared with that of vehicle, while non-operated animals and the uninjured (contralateral) hind paw in CCI animals were used as controls.
Adult male Sprague-Dawley rats (weighing 200–220 g/6–8 weeks old) were used in these experiments. All experimental procedures were conducted according to the animal welfare guidelines of the European Community (European Directive 2010/63/UE) to minimize animal suffering and were approved by Universidad Complutense de Madrid and Comunidad de Madrid ethical committees on animal experimentation (PROEX 207.8/21). […]
For behavioral testing, rats were placed in individual methacrylate boxes with a wire mesh floor, and after a period of 15 min acclimatization, the cold, heat and mechanical sensitivity of the ipsilateral and contralateral paws was determined. Cold sensitivity was assessed with the acetone test. In total, 100 µL acetone were locally applied to the plantar surface of the hind paw and the duration of the subsequent nocifensive response (licking, brushing, and flinching of the paw) was determined during 60 s. Acetone application and assessment were repeated 2 times with a 5 min interval and the sum of the two values was recorded. Heat sensitivity was determined with the Hargreaves test, which uses infrared light as a heat source, with a Hargreaves apparatus (Serie 8, Model 336, IITC Life Science, Woodland Hills, CA USA). The light beam was directed to the plantar surface of the hind paw and the time from the beginning of irradiation to the appearance of first paw withdrawal movement was measured (paw withdrawal latency). […]

T1 sequence (Q8R455 whole entry): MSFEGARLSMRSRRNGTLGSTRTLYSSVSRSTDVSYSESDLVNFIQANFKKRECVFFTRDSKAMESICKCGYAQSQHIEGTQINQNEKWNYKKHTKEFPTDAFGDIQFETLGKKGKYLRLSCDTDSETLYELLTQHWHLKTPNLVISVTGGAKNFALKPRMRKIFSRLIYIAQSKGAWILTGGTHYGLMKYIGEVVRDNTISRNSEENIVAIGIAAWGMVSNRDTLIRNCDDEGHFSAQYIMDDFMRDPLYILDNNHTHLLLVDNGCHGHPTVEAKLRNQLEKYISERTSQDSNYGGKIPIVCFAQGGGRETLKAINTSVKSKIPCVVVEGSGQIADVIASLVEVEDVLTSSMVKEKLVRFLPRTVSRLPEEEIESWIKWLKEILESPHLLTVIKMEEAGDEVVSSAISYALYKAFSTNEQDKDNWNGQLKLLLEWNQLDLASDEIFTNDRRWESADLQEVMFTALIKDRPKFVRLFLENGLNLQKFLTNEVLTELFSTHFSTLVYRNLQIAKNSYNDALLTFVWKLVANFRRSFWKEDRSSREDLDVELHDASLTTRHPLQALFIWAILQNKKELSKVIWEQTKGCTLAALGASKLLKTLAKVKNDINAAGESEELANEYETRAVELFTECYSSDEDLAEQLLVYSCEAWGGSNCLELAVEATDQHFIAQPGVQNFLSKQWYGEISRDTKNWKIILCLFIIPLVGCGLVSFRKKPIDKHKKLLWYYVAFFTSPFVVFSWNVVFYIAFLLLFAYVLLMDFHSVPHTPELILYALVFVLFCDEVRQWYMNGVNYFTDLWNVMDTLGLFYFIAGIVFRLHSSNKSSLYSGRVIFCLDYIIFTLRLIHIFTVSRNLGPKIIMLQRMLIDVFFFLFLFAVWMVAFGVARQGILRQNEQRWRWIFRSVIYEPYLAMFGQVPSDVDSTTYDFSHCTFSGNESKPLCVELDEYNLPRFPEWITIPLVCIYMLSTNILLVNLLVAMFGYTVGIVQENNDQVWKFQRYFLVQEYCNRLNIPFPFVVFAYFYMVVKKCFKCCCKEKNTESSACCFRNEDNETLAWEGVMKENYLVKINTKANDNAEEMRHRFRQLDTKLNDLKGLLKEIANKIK

## C[C@@H]1C(=O)N(C[C@H](Cc2ccccc2)N(Cc2ccccc2)Cc2ccccc2)[C@]1(Cc1ccccc1)C(=O)OC(C)(C)C [RGM8-51, 4(S)-Benzyl-3S-methyl-4-(tert-butoxy)carbonyl-1-[(2′S-dibenzylamino-3′-phenyl)prop-1′-yl]-2-oxoazetidine]
rTRPM8; HEK293-rTRPM8, 100 μM menthol
  IC50: 1.06 ± 1.21 µM
rTRPM8; HEK293 cells expressing rat or human TRPM8
  ability to activate TRPM8 channels (agonist activity): did not have any ability to activate TRPM8 channels
[1]; baseline, non-operated
  mechanical sensitivity in the absence of neuropathy: could not be observed
[1]; i.p. 10 and 30 mg/kg
  mechanical hypersensitivity (paw withdrawal threshold) in CCI rats: dose-dependently reverted paw withdrawal thresholds
[1]; local (i.pl.) 10 µg
  mechanical hypersensitivity (paw withdrawal threshold) in CCI rats: effect also being produced
